Assay results reported in US8790687B2, “Triterpene compounds which are effective on improvement of brain function” (priority 2003, dated 2014).

Assays:
ICR mice = test: in vivo; settings: oral; for disorders (general conditions): all dosages (2.0 g/kg, 680, 230, 75 mg/kg); for disorders (general conditions) / results of autopsy (abnormality of organs): ICR mice; for results of autopsy (abnormality of organs): autopsy after 2 weeks observation, versus control group; for LD10: seven times in 1 week, male ICR mice, observed 2 weeks
From the text: (§1) Furthermore, for 2 weeks after the administration, the death rate, general conditions and body weight of mice were examined and abnormality of organs was observed via autopsy.

in vivo = settings: male, ICR, mouse, in vivo, po
From the text: as §1

mice = test: Passive avoidance test, scopolamine-induced memory failure; type: in vivo; settings: scopolamine (1 mg/kg) group = 0%; for memory improvement / prevention activity to memory failure: passive avoidance latency, control without scopolamine and drugs = 100%, oral single administration, dose of compound not given
From the text: A shuttle box (50×15×40 cm) was used as an experimental device. The box was divided into two rooms by a guillotine door, where one of which was bright by illumination while the other was dark by black cloth, giving rise to two different illumination effects. Firstly, mice were placed into a bright room, the bright room was kept lighted and the guillotine door was kept open. The mice entered the dark room in 20 sec in accordance with their negative phototaxis and the guillotine door was kept closed upon the entrance. The latency period in which a mouse enters the dark room from the bright room was measured in a manner described above. On the first day of the test, all mice were subject to a training trial for 20-sec latency period. Next day, mice subject to the training trial were again placed in the bright room and the bright room was then kept lighted to render mice to enter the dark room. At this time, the electric shock of 0.8 mA was imposed for 3 sec by using an electric grid equipped on the bottom of the dark room to impose the electric shock on the sole of mice feet. After 24 hr of such acquisition trial, mice were again placed in the bright room and the bright room was then kept lighted to induce mice to enter the dark room. At this time, normal mice hesitated to enter the dark room due to the memory about the shock of the previous day. […] The control not subject to the administration of scopolamine and drugs was considered 100% and the group subject to the administration of scopolamine (1 mg/kg), known to result in the failure of memory through the inhibition of transmission of neurotransmitters, was considered 0%.

| Structure (SMILES) | disorders (general conditions) (ICR mice) | results of autopsy (abnormality of organs) (ICR mice) | LD10 (ICR mice) | LD50 (in vivo) | memory improvement / prevention activity to memory failure (mice) | prevention efficacy to memory failure (mice; positive control, oral administration 30 mg/kg, control = 100%) |
| --- | --- | --- | --- | --- | --- | --- |
| CC1(C)CCC2(C(=O)O)CCC3(C)C(=CCC4C5(C)CCC(O)C(C)(CO)C5CCC43C)C2C1 (stereo not drawn) [hederagenine] | no disorders | not different from the control group | 750 mg/kg | ≥ 5000 mg/kg | 41.1% |  |
| CC1(C)CC[C@]2(C(=O)O)CC[C@]3(C)C(=CC[C@@H]4[C@@]5(C)CC[C@H](O)C(C)(C)[C@@H]5CC[C@]43C)[C@@H]2C1 [oleanolic acid] |  | not different from the control group | 750 mg/kg | ≥ 5000 mg/kg | 43.3% |  |
| Nc1c2c(nc3ccccc13)CCCC2 [tacrine, reference compound] |  |  |  |  |  | 35% |
| C[C@H]1[C@H](C)CC[C@]2(C(=O)O)CC[C@]3(C)C(=CC[C@@H]4[C@@]5(C)CC[C@H](O)C(C)(C)[C@@H]5CC[C@]43C)[C@H]12 [ursolic acid] | no disorders | not different from the control group | 750 mg/kg | ≥ 5000 mg/kg | 37.0% |  |
